Source: patent US7446091B2, “Methods and preparations for curing clinically ill patients” (Novo Nordisk A/S, priority 2000, dated 2008)

Tested on: mechanically ventilated, adult patients admitted to the intensive care unit (ICU)
Test: Example 2: prospective, randomized, controlled study, morbidity analysis
Type: in vivo, human
Conditions: for Patients with critical illness polyneuropathy - total no.: EMG-screened patients; for Number of transfusions per patient (median): admission day not taken into account
Excerpt: All mechanically ventilated, adult patients admitted to the intensive care unit (ICU) were eligible for inclusion.
At baseline, demographic, diagnostic and therapeutic information as well as information necessary to determine severity of illness and utilization of ICU resources were obtained from each patient (Table 1). These included APACHE-II (Acute Physiology and Chronic Health Evaluation) score with higher values indicating more severe illness (see Knaus) and simplified Therapeutic Intervention Scoring System (TISS-28) with higher values indicating a higher number of therapeutic interventions (see Reis Miranda & Keene). APACHE II and TISS scores were calculated daily from ICU admission to discharge or death.
A blood sample was taken upon ICU admission and daily at 06:00 h until discharge from ICU or death. On-admission and daily morning, whole blood glucose level as well as daily maximal and minimal glycemia were analysed. Analyses on the 06:00 h sample also included clinical chemistry, hematology and markers of inflammation.
Blood cultures were taken whenever continously monitored central body temperature acutely rose above 38.5° C. Results from all blood cultures were interpreted by the same blinded investigator. An episode of bacteremia, fungemia or mycobacteremia was defined by the first positive blood culture in a series. To identify a blood stream infection with coagulase-negative staphylocci, identical strains (compared by antibiogram) of microorganisms in two or more positive blood cultures were required (see Weinstein 1997 and Weinstein 1998).
In patients treated in ICU for more than one week, a weekly electromyography (EMG) was performed to screen for Critical Illness Polyneuropathy. EMGs were interpreted by the same electrophysiologist who was blinded for randomization. In case of ICU death, a post-mortem examination was performed to confirm the presumed cause of death.
The primary outcome measure was death from all causes during intensive care. Secondary outcome measures were in-hospital mortality, incidence of prolonged intensive care dependency and need for ICU re-admission, need for vital organ system support comprising mechanical ventilatory support, renal replacement therapy (continuous or intermittent hemofiltration or dialysis), inotropic or vasopressor support, incidence of critical illness polyneuropathy, the degree of inflammation, incidence of blood stream infections and use of antibiotics, transfusion requirements and incidence of hyperbilirubinemia. Furthermore, use of intensive care resources was analysed by cumulative TISS scores. In order to accurately and objectively assess duration of ICU stay, which is often influenced by non-patient related factors such as bed availability on regular wards, patients were defined ‘dischargable from ICU’ when they were no longer in need of vital organ system support and received at least ⅔rd of the caloric need through the normal enteral route or earlier when actually sent to a ward.
Baseline and outcome variables were compared using Student's t-test, Chi-square test and Mann-Whitney-U test, as appropriate. Death odds ratios were calculated using multivariate logistic regression analysis. The effect on time of in-hospital death was assessed by Kaplan-Meier analysis and logrank (Mantel-Cox) significance testing. Patients discharged from the hospital were considered as survivors. Data are presented as percentages, means ±SD or medians (25th-75th percentile) unless indicated otherwise.

[1] = IIS, ICU stay >5 days (N = 451)
[2] = IIS, ICU stay ≤5 days (N = 1097)
[3] = RIS, ICU stay >5 days (N = 451)
[4] = RIS, ICU stay ≤5 days (N = 1097)

With insulin the “>3 days C-reactive protein level above 150 mg/L (%)” value (IIS) was “(15%)”, the “>3 days C-reactive protein level above 150 mg/L - total no.” value (IIS) was 119 and the “>3 days central body temperature ≤36° C. or […]38° C. (%)” value (IIS) was “(21%)”. The “>3 days central body temperature ≤36° C. or […]38° C. - total no.” value (IIS) was 164, the “>3 days white blood cell count ≤4000/μL or […]12000/μL (%)” value (IIS) was “(16%)” and the “>3 days white blood cell count ≤4000/μL or […]12000/μL - total no.” value (IIS) was 121. For the same substance, the “Lowest level of hemoglobin (g/dL) when transfused (median)” value (IIS) was 8.3 g/dL, the “Number of patients requiring red cell transfusion (%)” value (IIS) was “(29%)” and the “Number of patients requiring red cell transfusion - total no” value (IIS) was 219. The “Patients needing dialysis or CVVH (%)” value (IIS) was “(4.8%)”, the “Patients needing dialysis or CVVH - total no” value (IIS) was 37 and the “Patients on inotropic/vasopressor treatment (%)” value (IIS) was “(75%)”. The “Patients on inotropic/vasopressor treatment - total no.” value (IIS) was 574, the “Patients requiring >7 days intensive care (%)” value (IIS) was “(20.5%)” and the “Patients requiring >7 days intensive care - total no” value (IIS) was 157. For the same substance, the “Patients requiring >7 days ventilatory support (%)” value (IIS) was “(16.9%)”, the “Patients requiring >7 days ventilatory support - total no.” value (IIS) was 125 and the “Patients requiring >14 days intensive care (%)” value (IIS) was “(11.4%)”. The “Patients requiring >14 days intensive care - total no” value (IIS) was 87, the “Patients requiring >14 days ventilatory support (%)” value (IIS) was “(7.7%)” and the “Patients requiring >14 days ventilatory support - total no.” value (IIS) was 57. For the same substance, the “Patients requiring >21 days intensive care (%)” value (IIS) was “(6.5%)”, the “Patients requiring >21 days intensive care - total no” value (IIS) was 50 and the “Patients requiring >21 days ventilatory support (%)” value (IIS) was “(5.0%)”. The “Patients requiring >21 days ventilatory support - total no.” value (IIS) was 37, the “Patients treated with antibiotics for >10 days (%)” value (IIS) was “(11.2%)” and the “Patients treated with antibiotics for >10 days - total no.” value (IIS) was 86. For the same substance, the “Patients with an ICU stay of >5 days” value (IIS) was 27%, the “Patients with blood stream infections during intensive care (%)” value (IIS) was “(4.2%)” and the “Patients with blood stream infections during intensive care - total no” value (IIS) was 32. For the same substance, the “Patients with critical illness polyneuropathy (% of EMG-screened)” value (IIS) was “(29%)”, the “Patients with hyperbilirubinemia (peak bilirubin >2 mg/dL) (%)” value (IIS) was “(22%)” and the “Patients with hyperbilirubinemia (peak bilirubin >2 mg/dL) - total no.” value (IIS) was 171. For the same substance, the “Peak plasma creatinine >2.5 mg/dL (%)” value (IIS) was “(9.0%)”, the “Peak plasma creatinine >2.5 mg/dL - total no.” value (IIS) was 69 and the “Peak plasma urea concentration >150 mg/dL (%)” value (IIS) was “(7.7%)”. For the same substance, the “Peak plasma urea concentration >150 mg/dL - total no.” value (IIS) was 59, the “Repetitive (>2) positive EMGs (% of EMG screened)” value (IIS) was “(7%)” and the “Repetitive (>2) positive EMGs - total no” value (IIS) was 11. The “>3 days C-reactive protein level above 150 mg/L, NNT” value (IIS vs RIS) was 17, the “>3 days C-reactive protein level above 150 mg/L, RRR (%)” value (IIS vs RIS) was 29% and the “>3 days abnormal central body temperature, NNT” value (IIS vs RIS) was 20. For the same substance, the “>3 days abnormal central body temperature, RRR (%)” value (IIS vs RIS) was 19%, the “>3 days abnormal white blood cell count, NNT” value (IIS vs RIS) was 20 and the “>3 days abnormal white blood cell count, RRR (%)” value (IIS vs RIS) was 24%. For the same substance, the “In-hospital stay, difference between the two study groups” value (IIS vs RIS) was “not detectably different”, the “Patients needing dialysis or CVVH, NNT” value (IIS vs RIS) was 29 and the “Patients needing dialysis or CVVH, RRR (%)” value (IIS vs RIS) was 42%. For the same substance, the “Patients on inotropic/vasopressor treatment, RRR (%)” value (IIS vs RIS) was “=”, the “Patients requiring >7 days intensive care, NNT” value (IIS vs RIS) was 17 and the “Patients requiring >7 days intensive care, RRR (%)” value (IIS vs RIS) was 22%. For the same substance, the “Patients requiring >7 days ventilatory support, NNT” value (IIS vs RIS) was 16, the “Patients requiring >7 days ventilatory support, RRR (%)” value (IIS vs RIS) was 27% and the “Patients requiring >14 days intensive care, NNT” value (IIS vs RIS) was 23. The “Patients requiring >14 days intensive care, RRR (%)” value (IIS vs RIS) was 27%, the “Patients requiring >14 days ventilatory support, NNT” value (IIS vs RIS) was 22 and the “Patients requiring >14 days ventilatory support, RRR (%)” value (IIS vs RIS) was 37%. For the same substance, the “Patients requiring >21 days intensive care, NNT” value (IIS vs RIS) was 33, the “Patients requiring >21 days intensive care, RRR (%)” value (IIS vs RIS) was 32% and the “Patients requiring >21 days ventilatory support, NNT” value (IIS vs RIS) was 31. The “Patients requiring >21 days ventilatory support, RRR (%)” value (IIS vs RIS) was 39%, the “Patients treated with antibiotics for >10 days, NNT” value (IIS vs RIS) was 17 and the “Patients treated with antibiotics for >10 days, RRR (%)” value (IIS vs RIS) was 35%. The “Patients with blood stream infections, NNT” value (IIS vs RIS) was 28, the “Patients with blood stream infections, RRR (%)” value (IIS vs RIS) was 46% and the “Patients with critical illness polyneuropathy, RRR (%)” value (IIS vs RIS) was 44%. The “Patients with hyperbilirubinemia, NNT” value (IIS vs RIS) was 20, the “Patients with hyperbilirubinemia, RRR (%)” value (IIS vs RIS) was 19% and the “Peak plasma creatinine >2.5 mg/dL, NNT” value (IIS vs RIS) was 31. The “Peak plasma creatinine >2.5 mg/dL, RRR (%)” value (IIS vs RIS) was 26%, the “Peak plasma urea concentration >150 mg/dL, NNT” value (IIS vs RIS) was 29 and the “Peak plasma urea concentration >150 mg/dL, RRR (%)” value (IIS vs RIS) was 31%. For the same substance, the “Repetitive (>2) positive EMGs, NNT” value (IIS vs RIS) was 8, the “Repetitive (>2) positive EMGs, RRR (%)” value (IIS vs RIS) was 63% and the “Patients with critical illness polyneuropathy, NNT” value (IIS vs RIS, among screened patients) was 4. The “Reduction in median cumulative TISS score” value (IIS vs RIS, long-stay patients) was 20%, the “Patients with critical illness polyneuropathy - total no.” value (IIS) was 47 and the “Cumulative TISS (median)” value [1] was 431. The “Days on ICU (median)” value [1] was 12 days, the “Days on mechanical ventilatory support (median)” value [1] was 10 days and the “Cumulative TISS (median)” value [2] was 85. The “Days on ICU (median)” value [2] was 2 days, the “Days on mechanical ventilatory support (median)” value [2] was 1 days and the “Number of transfusions per patient (median)” value (IIS) was 1. For the same substance, the “>3 days C-reactive protein level above 150 mg/L (%)” value (RIS) was “(21%)”, the “>3 days C-reactive protein level above 150 mg/L - total no.” value (RIS) was 162 and the “>3 days central body temperature ≤36° C. or […]38° C. (%)” value (RIS) was “(26%)”. For the same substance, the “>3 days central body temperature ≤36° C. or […]38° C. - total no.” value (RIS) was 206, the “>3 days white blood cell count ≤4000/μL or […]12000/μL (%)” value (RIS) was “(21%)” and the “>3 days white blood cell count ≤4000/μL or […]12000/μL - total no.” value (RIS) was 166. The “Lowest level of hemoglobin (g/dL) when transfused (median)” value (RIS) was 8.1 g/dL, the “Number of patients requiring red cell transfusion (%)” value (RIS) was “(31%)” and the “Number of patients requiring red cell transfusion - total no” value (RIS) was 243. The “Patients needing dialysis or CVVH (%)” value (RIS) was “(8.2%)”, the “Patients needing dialysis or CVVH - total no” value (RIS) was 64 and the “Patients on inotropic/vasopressor treatment (%)” value (RIS) was “(75%)”. The “Patients on inotropic/vasopressor treatment - total no.” value (RIS) was 586, the “Patients requiring >7 days intensive care (%)” value (RIS) was “(26.3%)” and the “Patients requiring >7 days intensive care - total no” value (RIS) was 206. The “Patients requiring >7 days ventilatory support (%)” value (RIS) was “(23.2%)”, the “Patients requiring >7 days ventilatory support - total no.” value (RIS) was 175 and the “Patients requiring >14 days intensive care (%)” value (RIS) was “(15.7%)”. The “Patients requiring >14 days intensive care - total no” value (RIS) was 123, the “Patients requiring >14 days ventilatory support (%)” value (RIS) was “(12.3%)” and the “Patients requiring >14 days ventilatory support - total no.” value (RIS) was 93. For the same substance, the “Patients requiring >21 days intensive care (%)” value (RIS) was “(9.5%)”, the “Patients requiring >21 days intensive care - total no” value (RIS) was 74 and the “Patients requiring >21 days ventilatory support (%)” value (RIS) was “(8.2%)”. For the same substance, the “Patients requiring >21 days ventilatory support - total no.” value (RIS) was 62, the “Patients treated with antibiotics for >10 days (%)” value (RIS) was “(17.1%)” and the “Patients treated with antibiotics for >10 days - total no.” value (RIS) was 134. The “Patients with an ICU stay of >5 days” value (RIS) was 31%, the “Patients with blood stream infections during intensive care - total no” value (RIS) was 61 and the “Patients with critical illness polyneuropathy (% of EMG-screened)” value (RIS) was “(52%)”. The “Patients with hyperbilirubinemia (peak bilirubin >2 mg/dL) (%)” value (RIS) was “(27%)”, the “Patients with hyperbilirubinemia (peak bilirubin >2 mg/dL) - total no.” value (RIS) was 209 and the “Peak plasma creatinine >2.5 mg/dL (%)” value (RIS) was “(12.2%)”. The “Peak plasma creatinine >2.5 mg/dL - total no.” value (RIS) was 96, the “Peak plasma urea concentration >150 mg/dL (%)” value (RIS) was “(11.2%)” and the “Peak plasma urea concentration >150 mg/dL - total no.” value (RIS) was 88. The “Repetitive (>2) positive EMGs (% of EMG screened)” value (RIS) was “(19%)”, the “Repetitive (>2) positive EMGs - total no” value (RIS) was 39 and the “Patients with critical illness polyneuropathy - total no.” value (RIS) was 110. For the same substance, the “Cumulative TISS (median)” value [3] was 536, the “Days on ICU (median)” value [3] was 15 days and the “Days on mechanical ventilatory support (median)” value [3] was 12 days. For the same substance, the “Cumulative TISS (median)” value [4] was 84, the “Days on ICU (median)” value [4] was 2 days and the “Days on mechanical ventilatory support (median)” value [4] was 1 days. The “Number of transfusions per patient (median)” value (RIS) was 2, the “TISS score on the last day of study (median, IQR)” value (both study groups (IIS and RIS)) was 30 (26-38) and the ICU re-admission rate (similar in both groups (IIS and RIS)) was 2.1%.
